The values that follow come from PubChem BioAssay (NCI).

Several values for one entry are separate records, joined by “and”; a condition that tells them apart may be missing. Identical values can stand only once.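 Five compound concentrations were applied to cells in 96-well plates for 48 hours; endpoints were derived by simple linear interpolation of the resulting dose-response curve. GI50 marks 50% less growth. Definition used: TGI = concentration required for complete inhibition of growth.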 Some results are limits rather than exact numbers.

Test systems include PC-3 prostate; MDA-MB-231 breast; BT-549 breast; MCF7 breast; HS 578T breast; T-47D breast; DU-145 prostate.
Common to all, as to assay: NCI anticancer screen, dose series, 48 h

`C[C@@H](Oc1cc(NS(=O)(=O)N2CCC2)nc(SCc2cccc(F)c2F)n1)[C@@H](O)CO`: the GI50 in the test with PC-3 prostate, in the test with MDA-MB-231 breast, with BT-549 breast, in the test with MCF7 breast, with HS 578T breast and in the test on T-47D breast was greater than 100 µM in each case. For the same molecule, in the test with DU-145 prostate, the GI50 was greater than 100 µM. Moreover, the TGI in the test with PC-3 prostate, in the test with MDA-MB-231 breast, in the test on BT-549 breast, in the test with MCF7 breast, with HS 578T breast and in the test with T-47D breast was greater than 100 µM throughout. This molecule also gave a TGI with DU-145 prostate greater than 100 µM.
As to `COC1CC2C=CC3C4OC2(/C(C)=C/C(C)C(C(C)O)OC1=O)C3C(O)C(C)C4OC(=O)c1ccc[nH]1` (stereo not drawn), the TGI with PC-3 prostate, with MDA-MB-231 breast, with BT-549 breast, in the test on MCF7 breast, in the test with HS 578T breast and in the test on T-47D breast was greater than 100 µM each time. In addition, the TGI in the test on DU-145 prostate was greater than 100 µM.
With `CC1OC(O[C@H]2/C=C/C=C/C=C/C=C/C=C/C=C/C=C/[C@H](C)[C@@H](O)[C@@H](C)[C@H](C)OC(=O)C[C@H](O)C[C@H](O)CC[C@@H](O)[C@H](O)C[C@H](O)C[C@]3(O)C[C@H](O)[C@@H](C(=O)O)[C@H](C2)O3)C(O)C(N)C1O` (stereo partly drawn), the TGI in the test on PC-3 prostate was 31.8 µM; with MDA-MB-231 breast, 48.2 µM; in the test on BT-549 breast, 68.1 µM; with MCF7 breast it was 56.1 µM; in the test with HS 578T breast it was 27.7 µM; with T-47D breast it was greater than 86.8 µM. Further, the TGI in the test with DU-145 prostate was determined as 39.2 µM. Also, the GI50 in the test with MDA-MB-231 breast is 32.9 µM; in the test on BT-549 breast it was 20.6 µM; in the test with T-47D breast, 52.3 µM; in the test on DU-145 prostate, 12.7 µM.
Consider `COc1cc2c(Nc3ccc(Br)cc3F)ncnc2cc1OCC1CCN(C)CC1`, for which the GI50 is 4.06 µM and 3.9 µM with PC-3 prostate; 2.19 µM and 3.62 µM in the test with MDA-MB-231 breast; 7.38 µM and > 10 µM with BT-549 breast; 2.52 µM and 4.67 µM in the test on MCF7 breast; 2.26 µM and 2.48 µM in the test with HS 578T breast; 1.66 µM and 1.32 µM in the test on T-47D breast. Further, in the test on DU-145 prostate, the GI50 was 1.31 µM and 3.98 µM. Besides, the TGI with PC-3 prostate is 18.6 µM and > 10 µM; with MDA-MB-231 breast it was 8.29 µM and > 10 µM; in the test on BT-549 breast it was 19.7 µM and > 10 µM; in the test with MCF7 breast, 16 µM and > 10 µM; with HS 578T breast, 8.6 µM and > 10 µM; in the test on T-47D breast, 8.56 µM and > 10 µM. Moreover, the TGI with DU-145 prostate was 15.1 µM and > 10 µM.
Turning to `NCC1OC(n2cnc3c(=O)[nH]c(N)nc32)C(O)C1O` (stereo not drawn), the TGI in the test with PC-3 prostate, with MDA-MB-231 breast, in the test with BT-549 breast, with MCF7 breast, in the test on HS 578T breast and with T-47D breast was greater than 100 µM in each case. This molecule also showed a TGI in the test on DU-145 prostate greater than 100 µM.
Take `O=C(O[C@H]1CN[C@H](C#Cc2cc3ncnc(Nc4ccc(OCc5cccc(F)c5)c(Cl)c4)c3s2)C1)N1CCOCC1`: the GI50 in the test with PC-3 prostate is 4.93 µM; in the test on MDA-MB-231 breast, 5.09 µM; with BT-549 breast, 4.28 µM; with MCF7 breast, 8.57 µM; with HS 578T breast it was 7.23 µM; in the test with T-47D breast it was 1.55 µM. In addition, the GI50 in the test on DU-145 prostate is 5.96 µM. For the same molecule, the TGI is greater than 25 µM in the test with PC-3 prostate; 14.5 µM with MDA-MB-231 breast; 8.69 µM in the test on BT-549 breast; greater than 25 µM in the test with MCF7 breast; greater than 25 µM in the test with HS 578T breast; greater than 25 µM in the test with T-47D breast. For the same molecule, the TGI in the test on DU-145 prostate was greater than 25 µM.
Regarding `N/C(=N\c1nc2ccccc2s1)NC(=O)Nc1ccccc1Cl`, the GI50 was 0.13 µM in the test on PC-3 prostate; 0.431 µM in the test on MDA-MB-231 breast; 0.421 µM in the test on BT-549 breast; 0.112 µM in the test with MCF7 breast; 0.113 µM in the test with HS 578T breast; 0.557 µM in the test with T-47D breast. Besides, in the test with DU-145 prostate, the GI50 is 0.259 µM. For the same molecule, the TGI was greater than 71.9 µM in the test on PC-3 prostate; 8.21 µM with MDA-MB-231 breast; 4.86 µM in the test with BT-549 breast; greater than 100 µM with MCF7 breast; 10.7 µM in the test with HS 578T breast; greater than 100 µM with T-47D breast. The molecule also showed a TGI with DU-145 prostate of 9.28 µM.
Turning to `CN(C)c1ccc2cc(-c3cc4c(oc3=O)-c3ccccc3OC4O)c(=O)oc2c1` (stereo not drawn), the GI50 in the test on PC-3 prostate was 3.85 µM; in the test on MDA-MB-231 breast it was 4.9 µM; in the test with BT-549 breast, 2.11 µM; with MCF7 breast, 3.23 µM; in the test on HS 578T breast, 7.14 µM; with T-47D breast it was 1.01 µM. Moreover, the GI50 with DU-145 prostate is 5.18 µM. Moreover, the TGI in the test with PC-3 prostate came out at 15.1 µM; in the test with MDA-MB-231 breast it was 11.5 µM; in the test with BT-549 breast, 6.72 µM; with MCF7 breast it was 11.2 µM; in the test on HS 578T breast it was 19.6 µM; in the test with T-47D breast, 8.55 µM. In the test on DU-145 prostate, this molecule showed a TGI of 15.9 µM.
Take `C=C1SC(=Nc2ccccc2Cl)N(C(=O)c2sc3ccccc3c2Cl)C1(C)C`: the GI50 was 4.68 µM in the test on PC-3 prostate; 8.68 µM in the test with MDA-MB-231 breast; 10 µM in the test on BT-549 breast; 3.76 µM in the test with MCF7 breast; 5.66 µM in the test with HS 578T breast; 3.09 µM with T-47D breast. In addition, the GI50 in the test on DU-145 prostate is 11.3 µM. The TGI in the test on PC-3 prostate is greater than 100 µM; in the test with MDA-MB-231 breast, 59.5 µM; with BT-549 breast it was 49.2 µM; in the test with MCF7 breast, greater than 51.7 µM; in the test on HS 578T breast, 57.8 µM; in the test on T-47D breast, 26.8 µM. This molecule also showed a TGI with DU-145 prostate greater than 100 µM.
Consider `O=C1CC2C(=O)C1C(C(=O)O)C2C(=O)O` (stereo not drawn), for which the TGI in the test on PC-3 prostate, in the test on MDA-MB-231 breast, with BT-549 breast, in the test on MCF7 breast, with HS 578T breast and in the test with T-47D breast was greater than 100 µM in each case. Moreover, the TGI in the test on DU-145 prostate was greater than 100 µM.
Consider `CN(C1=NS(=O)(=O)N=C(N(C)c2ccccc2)O1)c1ccccc1`, for which the TGI with PC-3 prostate is greater than 100 µM; in the test with MDA-MB-231 breast, 41 µM; in the test with BT-549 breast, 39 µM; in the test on MCF7 breast, 38.9 µM; with HS 578T breast it was 69.9 µM; with T-47D breast, 45.5 µM. In addition, in the test with DU-145 prostate, the TGI is 61.7 µM.
